Patent US4489079A, “Pharmaceutical compositions having a peripheral antagonistic action with respect to opiates” (priority 1981, dated 1984)

Experiments:
[1] = tested on: analgesic effect of morphine; conditions: for ID50 a / ID50 c: ratio of analgesic-effect ID50 a to constipating-effect ID50 c; for ID50 a / ID50 c / Antagonism with respect to the analgesic effect ID50 a: (°) inactive up to the maximum injectable dose; for Antagonism with respect to the analgesic effect ID50 a: subcutaneous antagonist, 5 min before 12 mg/kg s.c. morphine, female mice, limits in parentheses, where given, on next line; for central effects / central activity (in words): conclusion from Table I
[2] = tested on: constipating effect of morphine; experiment: antagonism to the constipating effect of morphine (charcoal meal test, after A. F. Green, modified); conditions: for Antagonism with respect to the constipating effect ID50 c: subcutaneous antagonist, 5 min before 12 mg/kg s.c. morphine, female mice, extrapolated from least squares line log dose-response, limits in parentheses printed on next line; for ED50: Mus musculus, sc, read-out: Antagonism with respect to the constipating effect ID50 c
[3] = tested on: analgesic effect of morphine; experiment: animal or person; conditions: Mus musculus, sc, read-out: Antagonism with respect to the analgesic effect ID50 a
[4] = morphine control group, 12 mg/kg subcutaneous

| Structure (SMILES) | ID50 a / ID50 c [1] | Antagonism with respect to the analgesic effect ID50 a [1] [mg/kg] | Antagonism with respect to the constipating effect ID50 c [2] [mg/kg] | animals showing the increase of the threshold of sensitivity [1, 4] [%] | average increase of the threshold of sensitivity [1, 4] [%] | ED50 [3] [mg/kg] | ED50 [2] [mg/kg] | central effects / central activity (in words) [1] | ID50 a relative to ID50 c (in words) ([1]; mouse, in vivo) |
| --- | --- | --- | --- | --- | --- | --- | --- | --- | --- |
| C=CC[N+]1(CC=C)CC[C@]23CCCC[C@H]2[C@H]1Cc1ccc(O)cc13 [levallorphan bromoallylate, bromoallylate of levallorphan] | > 5.11 | > 80 | – | – | – | – | – | – | – |
| C=CC[N+]1(CC=C)CC[C@]23CCCC[C@H]2[C@H]1Cc1ccc(O)cc13 [levallorphan iodoallylate, iodoallylate of levallorphan] | > 3.61 | > 60 | 16.68 | – | – | – | – | – | – |
| CN1CC[C@]23c4c5ccc(O)c4O[C@H]2[C@@H](O)C=C[C@H]3[C@H]1C5 [morphine] | – | – | – | 100 | 100 | – | – | – | – |
| C=CC[N+]1(C)CC[C@]23c4c5ccc(O)c4O[C@H]2C(=O)CC[C@@]3(O)[C@H]1C5 (some centres unmarked) [naloxone bromomethylate] | 0.47 | – | – | – | – | 5.12 | 10.8 | have a certain central activity | – |
| C=CC[N+]1(C)CC[C@]23c4c5ccc(O)c4O[C@H]2C(=O)CC[C@@]3(O)[C@H]1C5.COS(=O)(=O)[O-] (some centres unmarked) [naloxone sulfomethylate] | 1.68 | 5.039 | 2.99 | – | – | – | – | have a certain central activity | – |
| C=CCN1CC[C@]23c4c5ccc(O)c4O[C@H]2C(=O)CC[C@@]3(O)[C@H]1C5 [naloxone, N-allylnoroxymorphone] | 0.11 | – | – | – | – | 0.083 | 0.75 | very active | much more active as antagonist of the analgesic effect than antagonist of the constipating effect |
